From PubChem BioAssay AID248 (DTP/NCI, 2004)
Where “and” joins values, the source holds several entries; their conditions need not be identical. Equal values may be shown once. Toxic doses and inconclusive results are not listed.

System: L1210 leukemia ip in BDF1 mice, survival T/C
Assay: NCI In Vivo Anticancer Drug Screen. Data for tumor model L1210 Leukemia (intraperitoneal) in B6D2F1 (BDF1) mice
Settings: endpoint: mean survival time, higher = longer survival
Method in brief: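 Tumor cells were implanted, animals were treated, and survival was followed. The result divides the treated measurement by the vehicle-control measurement.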

[1] = dose: 100.0 mg/kg/injection, schedule: Q04DX003 (ip), vehicle: Klucel (hydroxypropylcellulose) (HPC)
[2] = dose: 200.0 mg/kg/injection, schedule: Q04DX003 (ip), vehicle: Klucel (hydroxypropylcellulose) (HPC)
[3] = dose: 400.0 mg/kg/injection, schedule: Q04DX003 (ip), vehicle: Klucel (hydroxypropylcellulose) (HPC)
[4] = dose: 6.25 mg/kg/injection, schedule: Q01DX009 (ip), vehicle: saline
[5] = dose: 12.5 mg/kg/injection, schedule: Q01DX009 (ip), vehicle: saline
[6] = dose: 25.0 mg/kg/injection, schedule: Q01DX009 (ip), vehicle: saline
[7] = dose: 25.0 mg/kg/injection, schedule: Q04DX003 (ip), vehicle: saline
[8] = dose: 50.0 mg/kg/injection, schedule: Q04DX003 (ip), vehicle: saline
[9] = dose: 100.0 mg/kg/injection, schedule: Q04DX003 (ip), vehicle: saline
[10] = dose: 100.0 mg/kg/injection, schedule: Q01DX001 (ip), vehicle: saline
[11] = dose: 200.0 mg/kg/injection, schedule: Q01DX001 (ip), vehicle: saline
[12] = dose: 100.0 mg/kg/injection, schedule: Q01DX001 (ip), vehicle: saline with Tween-80
[13] = dose: 200.0 mg/kg/injection, schedule: Q01DX001 (ip), vehicle: saline with Tween-80
[14] = dose: 400.0 mg/kg/injection, schedule: Q01DX001 (ip), vehicle: saline with Tween-80

With `Cc1ccc(Cl)cc1NC(=O)c1cccc(C(=O)Nc2cc(Cl)ccc2C)c1` the T/C (dose: 50.0 mg/kg/injection, schedule: Q01DX009 (ip), vehicle: Klucel (hydroxypropylcellulose) (HPC)) was 91 % of control, the T/C (dose: 100.0 mg/kg/injection, schedule: Q01DX009 (ip), vehicle: Klucel (hydroxypropylcellulose) (HPC)) was 100 % of control and the T/C [1] was 98 % of control. For the same compound, the T/C (dose: 200.0 mg/kg/injection, schedule: Q01DX009 (ip), vehicle: Klucel (hydroxypropylcellulose) (HPC)) was 91 % of control and the T/C [2] was 88 % of control.

For `Cc1ccc(N=Nc2c(C)nn(C(N)=S)c2-c2ccccc2)cc1`, the T/C (dose: 75.0 mg/kg/injection, schedule: Q01DX001 (ip), vehicle: saline) was 94 % of control and the T/C (dose: 150.0 mg/kg/injection, schedule: Q01DX001 (ip), vehicle: saline) was 90 % of control.

For `CC(C)C(=O)NNC(=O)C(C)C`, the T/C [1] was 100 % of control, the T/C [2] was 108 % of control and the T/C [3] was 106 % of control.

`Nc1nc(SCc2ccccc2)c2[nH]cnc2n1` was tested, and the T/C (dose: 4.0 mg/kg/injection, schedule: Q01DX Z (ip), vehicle: carboxymethylcellulose (CMC)) was 124 % of control, the T/C (dose: 5.0 mg/kg/injection, schedule: Q03DX Z (ip), vehicle: carboxymethylcellulose (CMC)) was 92 % of control and the T/C (dose: 8.0 mg/kg/injection, schedule: Q01DX010 (ip), vehicle: saline) was 100 % of control. For the same compound, the T/C (dose: 8.0 mg/kg/injection, schedule: Q01DX Z (oral), vehicle: carboxymethylcellulose (CMC)) was 158 % of control, the T/C (dose: 10.0 mg/kg/injection, schedule: Q01DX Z (ip), vehicle: carboxymethylcellulose (CMC)) was 152 % of control and the T/C (dose: 10.0 mg/kg/injection, schedule: Q03DX Z (ip), vehicle: carboxymethylcellulose (CMC)) was 116 % of control. The T/C (dose: 15.0 mg/kg/injection, schedule: Q03DX Z (ip), vehicle: carboxymethylcellulose (CMC)) was 124 % of control, the T/C (dose: 20.0 mg/kg/injection, schedule: Q01DX001 (ip), vehicle: carboxymethylcellulose (CMC)) was 151 % of control and the T/C (dose: 20.0 mg/kg/injection, schedule: Q03DX Z (ip), vehicle: carboxymethylcellulose (CMC)) was 216 % of control. The T/C (dose: 41.0 mg/kg/injection, schedule: Q01DX001 (ip), vehicle: carboxymethylcellulose (CMC)) was 163 % of control, the T/C (dose: 41.0 mg/kg/injection, schedule: Q03DX Z (ip), vehicle: carboxymethylcellulose (CMC)) was 158 % of control and the T/C (dose: 41.0 mg/kg/injection, schedule: Q07DX Z (ip), vehicle: carboxymethylcellulose (CMC)) was 165 % of control. The T/C (dose: 60.0 mg/kg/injection, schedule: Q01DX Z (ip), vehicle: carboxymethylcellulose (CMC)) was 118 % of control, the T/C (dose: 62.5 mg/kg/injection, schedule: Q01DX010 (ip), vehicle: saline) was 108 % of control and the T/C (dose: 64.0 mg/kg/injection, schedule: Q01DX Z (oral), vehicle: carboxymethylcellulose (CMC)) was 124 % of control. For the same compound, the T/C (dose: 82.0 mg/kg/injection, schedule: Q01DX001 (ip), vehicle: carboxymethylcellulose (CMC)) was 157 % of control, the T/C (dose: 82.0 mg/kg/injection, schedule: Q07DX Z (ip), vehicle: carboxymethylcellulose (CMC)) was 168 % of control and the T/C (dose: 86.0 mg/kg/injection, schedule: Q01DX001 (ip), vehicle: carboxymethylcellulose (CMC)) was 163 % of control. For the same compound, the T/C (dose: 125.0 mg/kg/injection, schedule: Q01DX010 (ip), vehicle: saline) was 103 % of control, the T/C (dose: 129.0 mg/kg/injection, schedule: Q01DX001 (ip), vehicle: carboxymethylcellulose (CMC)) was 160 % of control and the T/C (dose: 195.0 mg/kg/injection, schedule: Q01DX001 (ip), vehicle: carboxymethylcellulose (CMC)) was 168 % of control and 181 % of control. The T/C (dose: 292.0 mg/kg/injection, schedule: Q03DX Z (ip), vehicle: carboxymethylcellulose (CMC)) was 101 % of control and the T/C (dose: 292.0 mg/kg/injection, schedule: Q07DX Z (ip), vehicle: carboxymethylcellulose (CMC)) was 114 % of control.

With `CCOC(=O)c1cc(N(CCOS(C)(=O)=O)CCOS(C)(=O)=O)ccc1N` the T/C (dose: 1.8 mg/kg/injection, schedule: Q01DX015 (ip), vehicle: saline) was 95 % of control, the T/C (dose: 2.0 mg/kg/injection, schedule: Q01DX015 (ip), vehicle: saline) was 89 % of control and the T/C (dose: 3.0 mg/kg/injection, schedule: Q01DX015 (ip), vehicle: saline) was 106 % of control. For the same compound, the T/C (dose: 5.0 mg/kg/injection, schedule: Q01DX001 (ip), vehicle: saline) was 116 % of control and the T/C (dose: 7.0 mg/kg/injection, schedule: Q01DX015 (ip), vehicle: saline) was 90 % of control.

With `CN(C)CC/C=C1\c2ccccc2CSc2ccccc21` the T/C [4] was 95 % of control, the T/C [5] was 108 % of control and the T/C [6] was 109 % of control. The T/C [7] was 100 % of control, the T/C (dose: 50.0 mg/kg/injection, schedule: Q01DX009 (ip), vehicle: saline) was 101 % of control and the T/C [8] was 89 % of control. The T/C [9] was 97 % of control.

In the case of `Cc1ccc(Oc2cccc(C(=O)O)c2)cc1`, the T/C [1] is reported as 107 % of control, the T/C [2] is reported as 96 % of control and the T/C [3] is reported as 118 % of control.

For `O=C(O)c1cccc(C2CCCCC2)c1`, the T/C (dose: 75.0 mg/kg/injection, schedule: Q01DX001 (ip), vehicle: other) was 106 % of control, the T/C (dose: 150.0 mg/kg/injection, schedule: Q01DX001 (ip), vehicle: other) was 97 % of control and the T/C (dose: 300.0 mg/kg/injection, schedule: Q01DX001 (ip), vehicle: other) was 101 % of control.

In the case of `CCC(C)c1ccc(OCCO)cc1` (stereo not given), the T/C [10] is reported as 97 % of control and the T/C [11] is reported as 90 % of control.

With `O=S1(=O)C(Cc2ccccc2)CCC1Cc1ccccc1` (stereo not given) the T/C [1] was 102 % of control, the T/C [2] was 94 % of control and the T/C [3] was 102 % of control.

In the case of `N#CCN(CC#N)S(=O)(=O)c1ccccc1`, the T/C (dose: 100.0 mg/kg/injection, schedule: Q04DX003 (ip), vehicle: saline with Tween-80) is reported as 96 % of control, the T/C (dose: 200.0 mg/kg/injection, schedule: Q04DX003 (ip), vehicle: saline with Tween-80) is reported as 94 % of control and the T/C (dose: 400.0 mg/kg/injection, schedule: Q04DX003 (ip), vehicle: saline with Tween-80) is reported as 101 % of control.

With `COc1ccc(OC)c(NC(=O)Oc2ccc(Br)cc2Br)c1` the T/C (dose: 100.0 mg/kg/injection, schedule: Q04DX002 (ip), vehicle: Klucel (hydroxypropylcellulose) (HPC)) was 104 % of control, the T/C (dose: 200.0 mg/kg/injection, schedule: Q04DX002 (ip), vehicle: Klucel (hydroxypropylcellulose) (HPC)) was 104 % of control and the T/C (dose: 400.0 mg/kg/injection, schedule: Q04DX002 (ip), vehicle: Klucel (hydroxypropylcellulose) (HPC)) was 86 % of control.

`c1ccc2c(c1)C[N+](=C1CCCCC1)C2` was tested, and the T/C (dose: 75.0 mg/kg/injection, schedule: Q01DX009 (ip), vehicle: saline) was 91 % of control, the T/C [10] was 93 % of control and the T/C (dose: 150.0 mg/kg/injection, schedule: Q01DX009 (ip), vehicle: saline) was 88 % of control. The T/C [11] was 97 % of control, the T/C (dose: 300.0 mg/kg/injection, schedule: Q01DX009 (ip), vehicle: saline) was 91 % of control and the T/C (dose: 400.0 mg/kg/injection, schedule: Q01DX001 (ip), vehicle: saline) was 98 % of control.

`Cc1ccc(-n2c(O)c(C=N)c(=O)[nH]c2=O)cc1` was tested, and the T/C (dose: 100.0 mg/kg/injection, schedule: Q01DX009 (ip), vehicle: saline with Tween-80) was 97 % of control and the T/C (dose: 200.0 mg/kg/injection, schedule: Q01DX009 (ip), vehicle: saline with Tween-80) was 93 % of control.

`O=C1N(c2ccccc2)C(c2ccccc2)SC1(Cc1ccc(Br)cc1)c1ccccc1` (stereo not given) was tested, and the T/C [12] was 100 % of control, the T/C [13] was 98 % of control and the T/C [14] was 94 % of control.

For `CCOC(=O)C(O)(C(=O)OCC)c1ccccc1`, the T/C (dose: 100.0 mg/kg/injection, schedule: Q01DX001 (ip), vehicle: other) was 97 % of control, the T/C (dose: 200.0 mg/kg/injection, schedule: Q01DX001 (ip), vehicle: other) was 102 % of control and the T/C (dose: 400.0 mg/kg/injection, schedule: Q01DX001 (ip), vehicle: other) was 103 % of control.

In the case of `COc1ccc(-c2cc(C(=O)O)c3cccc(C(F)(F)F)c3n2)cc1`, the T/C [9] is reported as 90 % of control.

For `O=[N+]([O-])c1ccc(/C=N/c2nccs2)o1`, the T/C (dose: 1.56 mg/kg/injection, schedule: Q01DX009 (ip), vehicle: saline) was 88 % of control, the T/C (dose: 3.12 mg/kg/injection, schedule: Q01DX009 (ip), vehicle: saline) was 90 % of control and the T/C [4] was 93 % of control. For the same compound, the T/C [5] was 103 % of control, the T/C [6] was 93 % of control and the T/C [7] was 97 % of control. For the same compound, the T/C [8] was 116 % of control and the T/C [9] was 88 % of control and 91 % of control.

For `O=C(Oc1ccncc1)c1ccccc1`, the T/C [12] was 92 % of control, the T/C [13] was 96 % of control and the T/C [14] was 103 % of control.

With `O=c1oc2c(CN3CCCC3)c(O)ccc2c2c1CCCC2` the T/C (dose: 100.0 mg/kg/injection, schedule: Q01DX001 (ip), vehicle: carboxymethylcellulose (CMC)) was 91 % of control and the T/C (dose: 200.0 mg/kg/injection, schedule: Q01DX001 (ip), vehicle: carboxymethylcellulose (CMC)) was 98 % of control.
